Test results taken from patent US20240108738A1, “BICYCLIC PEPTIDE LIGANDS SPECIFIC FOR NK CELLS” (Bicycle Tx Limited, priority 2021, published 2024).
pKd: −log10 of the molar value. Numbered stars: 1 amine (or outer) side, 2 acyl side, 3 side chain; on linkers, the order of the positions; unused ones are H or OH. Bridge positions count the residues as written; N and C are the ends. Square brackets hold non-standard residues; d marks the D form. Peptide text beside a SMILES is read from it. TATA = O=C(CC[*:1])N1CN(C(=O)CC[*:2])CN(C(=O)CC[*:3])C1; X1 = C(c1nc(C[*:2])nc(C[*:3])n1)[*:1]; dCha = N[C@H](CC1CCCCC1)C(=O)O; Cba = N[C@@H](CC1CCC1)C(=O)O; Pen = CC(C)(S)[C@H](N)C(=O)O; dNle = CCCC[C@@H](N)C(=O)O; Dap = NC[C@H](N)C(=O)O

What follows are compounds tested against CD16a (V Variant) (Homo sapiens, UniProt P08637, F176V) (assay: FcγRIII (CD16a) SPR (Method A and/or Method B), V variant). Details: not given.
Sequence of CD16a (V Variant) (P08637 17-208 F176V): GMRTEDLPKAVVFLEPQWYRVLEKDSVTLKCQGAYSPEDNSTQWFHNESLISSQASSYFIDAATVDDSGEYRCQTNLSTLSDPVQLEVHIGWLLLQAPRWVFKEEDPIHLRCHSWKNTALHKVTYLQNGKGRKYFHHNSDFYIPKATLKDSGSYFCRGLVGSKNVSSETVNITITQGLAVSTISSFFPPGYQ
Assay type: binding

Structure (SMILES) | pKd
CC(C)C[C@@H]1NC(=O)CNC(=O)[C@H](C(C)C)NC(=O)[C@@H](N)CSCc2nc3nc(n2)CSC[C@H](NC(=O)[C@@H]2CCCN2C(=O)CNC(=O)[C@H](CC(C)C)NC(=O)[C@H](CCC(=O)O)NC(=O)[C@H](CCC(=O)O)NC1=O)C(=O)N[C@@H](CO)C(=O)N[C@@H](CC(=O)O)C(=O)N[C@@H](CC(C)C)C(=O)N[C@H](C(N)=O)CSC3 [BCY16494, (SEQ ID NO: 62)] | 5.55
CC(C)[C@@H]1NC(=O)[C@H](CO)NC(=O)[C@H](Cc2c[nH]c3ccccc23)NC(=O)[C@H](CCCNC(=N)N)NC(=O)[C@@H](NC(=O)[C@H](C)N)CSCc2nc3nc(n2)CSC[C@H](NC(=O)[C@@H]2CCCN2C(=O)[C@H](CC(=O)O)NC(=O)[C@H](CCC(=O)O)NC1=O)C(=O)N[C@H](C)C(=O)N[C@@H](C)C(=O)N[C@@H](Cc1c[nH]c2ccccc12)C(=O)N[C@H](C(=O)N[C@@H](C)C(N)=O)CSC3 [BCY14956, A-(SEQ ID NO: 178)-A] (H-ACRWSVEDPC[dA]AWCA-NH2; linker 2-10-14 via X1; N-terminus assumed) | 5.67
C[C@H](N)C(=O)N[C@H]1CSCc2nc3nc(n2)CSC[C@H](NC(=O)[C@@H]2CCCN2C(=O)[C@H](CCC(=O)O)NC(=O)[C@H](CO)NC(=O)[C@H](Cc2ccccc2)NC(=O)[C@H](Cc2c[nH]cn2)NC(=O)[C@H](Cc2c[nH]c4ccccc24)NC(=O)[C@H](CCCNC(=N)N)NC1=O)C(=O)N[C@H](C)C(=O)N[C@@H](C)C(=O)N[C@@H](Cc1c[nH]c2ccccc12)C(=O)N[C@H](C(=O)N[C@@H](C)C(N)=O)CSC3 [BCY20392, A-(SEQ ID NO: 235)-A] (H-ACRWHFSEPC[dA]AWCA-NH2; linker 2-10-14 via X1; C-terminus assumed) | 6.41

Same assay, conditions: SPR Method A and/or B, Table 6B; read-out: Kd (nM) (V Variant)

Structure (SMILES) | Kd
CC(C)C[C@@H]1NC(=O)[C@@H]2CCCN2C(=O)[C@H](Cc2c[nH]cn2)NC(=O)[C@@H]2CSCCC(=O)N3CN(CN(C3)C(=O)CCSC[C@H](NC(=O)[C@H](C)N)C(=O)N3CCC[C@H]3C(=O)N3CCC[C@H]3C(=O)N[C@@H](CCC(N)=O)C(=O)N[C@@H](C(C)C)C(=O)N[C@@H](Cc3ccc(O)cc3)C(=O)N2)C(=O)CCSC[C@@H](C(=O)N[C@@H](C)C(N)=O)NC(=O)[C@H](CC(=O)O)NC1=O [BCY11812, A-(SEQ ID NO: 173)-A] (H-ACPPQVYCHPLDCA-NH2; linker 2-8-13 via TATA; C-terminus assumed) | 2400 nM
CC(C)C[C@@H]1NC(=O)[C@@H]2CCCN2C(=O)[C@H](Cc2c[nH]cn2)NC(=O)[C@@H]2CSCCC(=O)N3CN(CN(C3)C(=O)CCSC[C@H](NC(=O)[C@H](C)N)C(=O)N3CCC[C@H]3C(=O)N3CCC[C@H]3C(=O)N[C@@H]([C@@H](C)O)C(=O)N[C@@H](C(C)C)C(=O)N[C@@H](Cc3ccc(O)cc3)C(=O)N2)C(=O)CCSC[C@@H](C(=O)N[C@@H](C)C(=O)N(C)CC(=O)N(C)CC(=O)N(C)CC(=O)N(C)CC(=O)N(C)CC(=O)N(C)CC(=O)N[C@@H](CCCCNC(=O)CCCC[C@@H]2SC[C@@H]3NC(=O)N[C@@H]32)C(N)=O)NC(=O)[C@H](CC(=O)O)NC1=O [BCY12621, A-(SEQ ID NO: 60)-A-[Sar6]-[KBiot]] | 1900 nM

What follows are compounds tested against CD16a (F Variant) (Homo sapiens, UniProt P08637) (assay: FcγRIII (CD16a) SPR (Method A and/or Method B), F variant). Details: not given.
Assay type: binding

Structure (SMILES) | pKd
CC(C)C[C@@H]1NC(=O)CNC(=O)[C@H](C(C)C)NC(=O)[C@@H](N)CSCc2nc3nc(n2)CSC[C@H](NC(=O)[C@@H]2CCCN2C(=O)CNC(=O)[C@H](CC(C)C)NC(=O)[C@H](CCC(=O)O)NC(=O)[C@H](CCC(=O)O)NC1=O)C(=O)N[C@@H](CO)C(=O)N[C@@H](CC(=O)O)C(=O)N[C@@H](CC(C)C)C(=O)N[C@H](C(N)=O)CSC3 [BCY16494, (SEQ ID NO: 62)] | 5.54
C[C@H](N)C(=O)N[C@H]1CSCc2nc3nc(n2)CSC[C@H](NC(=O)[C@@H]2CCCN2C(=O)[C@H](CCC(=O)O)NC(=O)[C@H](CO)NC(=O)[C@@H]2CCN2C(=O)[C@H](Cc2c[nH]cn2)NC(=O)[C@H](Cc2c[nH]c4ccccc24)NC(=O)[C@H](CCCNC(=N)N)NC1=O)C(=O)NCC(=O)N[C@@H](C)C(=O)N[C@@H](Cc1c[nH]c2ccccc12)C(=O)N[C@H](C(=O)N[C@@H](C)C(N)=O)CSC3 [BCY20382, A-(SEQ ID NO: 227)-A] | 6.41

Same assay, conditions: SPR Method A and/or B, Table 6B; read-out: Kd (nM) (F Variant)

Structure (SMILES) | Kd
CC(C)C[C@@H]1NC(=O)[C@@H]2CCCN2C(=O)[C@H](Cc2c[nH]cn2)NC(=O)[C@@H]2CSCCC(=O)N3CN(CN(C3)C(=O)CCSC[C@H](NC(=O)[C@H](C)N)C(=O)N3CCC[C@H]3C(=O)N3CCC[C@H]3C(=O)N[C@@H](CCC(N)=O)C(=O)N[C@@H](C(C)C)C(=O)N[C@@H](Cc3ccc(O)cc3)C(=O)N2)C(=O)CCSC[C@@H](C(=O)N[C@@H](C)C(N)=O)NC(=O)[C@H](CC(=O)O)NC1=O [BCY11812, A-(SEQ ID NO: 173)-A] (H-ACPPQVYCHPLDCA-NH2; linker 2-8-13 via TATA; C-terminus assumed) | 11800 nM

Each compound was assayed against T1, Fc-tagged human NKp46 (Homo sapiens, UniProt O76036) (assay: NKp46 SPR assay (Method 1 and/or Method 2)). Details: SPR Method 1 and/or Method 2, Table 3B.
T1 construct: purchased ACROBiosystems NC1-H5257
T1 sequence (O76036 22-304): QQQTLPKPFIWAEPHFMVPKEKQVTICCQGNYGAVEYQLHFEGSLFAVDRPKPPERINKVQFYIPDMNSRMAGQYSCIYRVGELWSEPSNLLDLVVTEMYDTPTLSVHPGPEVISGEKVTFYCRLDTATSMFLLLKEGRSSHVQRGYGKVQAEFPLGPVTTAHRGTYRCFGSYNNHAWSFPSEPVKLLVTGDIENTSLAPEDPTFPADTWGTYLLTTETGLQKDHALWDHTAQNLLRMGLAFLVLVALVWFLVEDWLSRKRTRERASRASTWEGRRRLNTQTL
Assay type: binding
Method in brief: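 Method 1: biotinylated Avi-tag NKp46-Fc on streptavidin chip, peptides to 100-5000 nM top in PBS/0.05% Tween 20, 0.5% DMSO; 1:1 kinetic fit with mass transport. Method 2: NKp46-Fc captured by anti-Fc, PBS-P+ 2% DMSO; steady-state or kinetic 1:1 fit. Both 25° C, 50 μl/min, 60 s association.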

Structure (SMILES) | pKd
CSCC[C@@H]1NC(=O)[C@@H]2CSCCC(=O)N3CN(CN(C3)C(=O)CCSC[C@@H](C(=O)N[C@@H](C)C(N)=O)NC(=O)[C@H](C(C)C)NC(=O)[C@H](C)NC(=O)CNC(=O)[C@H]([C@@H](C)O)NC(=O)[C@H](CC(C)C)NC1=O)C(=O)CCSC[C@H](NC(=O)[C@H](C)N)C(=O)N[C@@H](CC(N)=O)C(=O)N[C@@H](CC(C)C)C(=O)N[C@@H](CCC(N)=O)C(=O)N[C@@H](C)C(=O)N1CCC[C@H]1C(=O)N2 [BCY18304, A-(SEQ ID NO: 68)-A] (H-ACNLQAPCMLTGAVCA-NH2; linker 2-8-15 via TATA; N-terminus assumed) | 5.82
CC[C@H](C)[C@@H]1NC(=O)[C@@H](C)NC(=O)[C@H](Cc2c[nH]c3ccccc23)NC(=O)[C@H](CCC(N)=O)NC(=O)[C@@H]2CSCCC(=O)N3CN(CN(C3)C(=O)CCSC[C@@H](C(=O)N[C@@H](C)C(N)=O)NC1=O)C(=O)CCSC[C@H](NC(=O)[C@H](C)N)C(=O)N[C@@H](CC(=O)O)C(=O)N[C@@H](CC(C)C)C(=O)N[C@@H]([C@@H](C)O)C(=O)N[C@@H]([C@@H](C)O)C(=O)N[C@@H](Cc1c[nH]cn1)C(=O)N[C@@H](CC(N)=O)C(=O)N2 [BCY18292, A-(SEQ ID NO: 135)-A] (H-ACDLTTHNCQW[dA]ICA-NH2; linker 2-9-14 via TATA; N-terminus and C-terminus assumed) | 5.84
CC(=O)N[C@H]1CSCCC(=O)N2CN3CN(C2)C(=O)CCSC[C@H](NC(=O)[C@H](CC(C)C)NC(=O)[C@H](Cc2ccc(O)cc2)NC(=O)[C@H](CC(=O)O)NC(=O)[C@@H]2CCCN2C(=O)[C@H](CC2CCC2)NC(=O)[C@H](Cc2ccc(O)cc2)NC1=O)C(=O)N[C@H](CC1CCCCC1)C(=O)N[C@@H](CC(=O)O)C(=O)N[C@@H](CCC(=O)O)C(=O)N[C@@H](Cc1ccc(O)cc1)C(=O)N[C@H](C(N)=O)CSCCC3=O [BCY19683, Ac-(SEQ ID NO: 147)] (Ac-CY[Cba]PDYLC[dCha]DEYC-NH2; linker 1-8-13 via TATA; C-terminus assumed) | 8.00

Next, values leading:

pKd | Structure (SMILES)
5.50 | CC(C)C[C@@H]1NC(=O)[C@H](CC(N)=O)NC(=O)[C@@H](NC(=O)[C@H](C)N)CSCCC(=O)N2CN3CN(C2)C(=O)CCSC[C@H](NC(=O)[C@@H]2CCCN2C(=O)[C@H](C)NC(=O)[C@H](CCC(N)=O)NC1=O)C(=O)N[C@@H](CC(C)C)C(=O)N[C@@H](Cc1c[nH]cn1)C(=O)N[C@@H]([C@@H](C)O)C(=O)NCC(=O)N[C@@H](CCCCN)C(=O)N[C@@H](C(C)C)C(=O)N[C@H](C(=O)N[C@@H](C)C(N)=O)CSCCC3=O [BCY19712, A-(SEQ ID NO: 101)-A] (H-ACNLQAPCLHTGKVCA-NH2; linker 2-8-15 via TATA; C-terminus assumed)
< 6.30 | CC(=O)N[C@H]1CSCCC(=O)N2CN3CN(C2)C(=O)CCSC(C)(C)[C@@H](C(N)=O)NC(=O)[C@H](Cc2ccc(O)cc2)NC(=O)[C@H](CCC(=O)O)NC(=O)[C@H](CC(=O)O)NC(=O)[C@@H](C)NC(=O)[C@H](CSCCC3=O)NC(=O)[C@H](CC(C)C)NC(=O)[C@H](Cc2ccc(O)cc2)NC(=O)[C@H](CC(=O)O)NC(=O)[C@@H]2CCCN2C(=O)[C@H](CC2CCC2)NC(=O)[C@H](Cc2ccc(O)cc2)NC1=O [BCY19691, Ac-(SEQ ID NO: 155)] (Ac-CY[Cba]PDYLC[dA]DEY[Pen]-NH2; linker 1-8-13 via TATA)
5.64 | CC[C@H](C)[C@@H]1NC(=O)CNC(=O)[C@H](Cc2c[nH]c3c(C)cccc23)NC(=O)[C@H](CCC(N)=O)NC(=O)[C@@H]2CSCCC(=O)N3CN(CN(C3)C(=O)CCSC[C@@H](C(=O)N[C@@H](C)C(N)=O)NC1=O)C(=O)CCSC[C@H](NC(=O)[C@H](C)N)C(=O)N[C@@H](CC(=O)O)C(=O)N[C@@H](CC(C)C)C(=O)N[C@@H]([C@@H](C)O)C(=O)N[C@@H]([C@@H](C)O)C(=O)N[C@@H](Cc1c[nH]cn1)C(=O)N[C@@H](CC(N)=O)C(=O)N2 [BCY19723, A-(SEQ ID NO: 161)-A]
5.43 | CSCC[C@@H]1NC(=O)[C@@H]2CSCCC(=O)N3CN(CN(C3)C(=O)CCSC[C@H](NC(=O)[C@@H](N)CN)C(=O)N[C@@H](CC(N)=O)C(=O)N[C@@H](CC(C)C)C(=O)N[C@@H](CCC(N)=O)C(=O)N[C@@H](C)C(=O)N3CCC[C@H]3C(=O)N2)C(=O)CCSC[C@@H](C(=O)N[C@@H](C)C(N)=O)NC(=O)[C@H](C(C)C)NC(=O)[C@H](CCCCN)NC(=O)CNC(=O)[C@H]([C@@H](C)O)NC(=O)[C@H](CC(C)C)NC1=O [BCY19697, Dap-(SEQ ID NO: 4)-A] (H-[Dap]CNLQAPCMLTGKVCA-NH2; linker 2-8-15 via TATA)
5.95 | CC[C@H](C)[C@@H]1NC(=O)CNC(=O)[C@H](Cc2c[nH]c3ccccc23)NC(=O)[C@H](CCC(N)=O)NC(=O)[C@@H]2CSCCC(=O)N3CN(CN(C3)C(=O)CCSC[C@H](N)C(=O)N[C@@H](CC(=O)O)C(=O)N[C@@H](CC(C)C)C(=O)N[C@@H]([C@@H](C)O)C(=O)N[C@@H]([C@@H](C)O)C(=O)N[C@@H](Cc3c[nH]cn3)C(=O)N[C@@H](CC(N)=O)C(=O)N2)C(=O)CCSC[C@@H](C(=O)N[C@@H](C)C(N)=O)NC1=O [BCY19718, (SEQ ID NO: 11)-A] (H-CDLTTHNCQWGICA-NH2; linker 1-8-13 via TATA)
8.00 | CCCC[C@H]1NC(=O)[C@@H]2CSCCC(=O)N3CN(CN(C3)C(=O)CCSC[C@H](NC(C)=O)C(=O)N[C@@H](Cc3ccc(O)cc3)C(=O)N[C@@H](CC3CCC3)C(=O)N3CCC[C@H]3C(=O)N[C@@H](CC(=O)O)C(=O)N[C@@H](Cc3ccc(O)cc3)C(=O)N[C@@H](CC(C)C)C(=O)N2)C(=O)CCSC[C@@H](C(N)=O)NC(=O)[C@H](Cc2ccc(O)cc2)NC(=O)[C@H](CCC(=O)O)NC(=O)[C@H](CC(=O)O)NC1=O [BCY19685, Ac-(SEQ ID NO: 149)] (Ac-CY[Cba]PDYLC[dNle]DEYC-NH2; linker 1-8-13 via TATA)
